# Assay results: patent US6737383B1, “Herbicidal oxadiazolidines” (priority 1999, dated 2004)
# Tests used:
# bedstraw = assay: Test B pre/postemergence bedstraw; format: in vivo, Galium aparine; conditions: Postemergence, Rate 250 g/ha; scale of 0 to 10, 0 is no effect, 10 is complete control
# Summary of the method: (§1)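 Test chemicals in a non-phytotoxic solvent mixture with surfactant were sprayed preemergence onto planted seeds and postemergence onto plants 2 to 18 cm tall (1- to 4-leaf stage). After twelve to sixteen days in a greenhouse, injury was visually rated against untreated controls from 0 (no effect) to 10 (complete control).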
# blackgrass = assay: Test B pre/postemergence blackgrass; format: in vivo, Alopecurus myosuroides
# Summary of the method: as §1
# surinam grass = assay: Test B pre/postemergence surinam grass; format: in vivo, Brachiaria decumbens
# Summary of the method: as §1
# cocklebur = assay: Test B pre/postemergence cocklebur; format: in vivo, Xanthium strumarium
# Summary of the method: as §1
# corn = assay: Test B pre/postemergence corn; format: in vivo, Zea mays
# Summary of the method: as §1
# morningglory = assay: Test B pre/postemergence morningglory; format: in vivo, Ipomoea hederacea
# Summary of the method: as §1
# pigweed = assay: Test B pre/postemergence pigweed; format: in vivo, Amaranthus retroflexus
# Summary of the method: as §1
# rape = assay: Test B pre/postemergence rape; format: in vivo, Brassica napus
# Summary of the method: as §1
# soybean = assay: Test B pre/postemergence soybean; format: in vivo, Glycine max
# Summary of the method: as §1
# sugar beet = assay: Test B pre/postemergence sugar beet; format: in vivo, Beta vulgaris
# Summary of the method: as §1
# velvetleaf = assay: Test B pre/postemergence velvetleaf; format: in vivo, Abutilon theophrasti
# Summary of the method: as §1
# wild oat = assay: Test B pre/postemergence wild oat; format: in vivo, Avena fatua
# Summary of the method: as §1
# purple nutsedge = assay: Test B pre/postemergence purple nutsedge; format: in vivo, Cyperus rotundus
# Summary of the method: as §1
# rice = assay: Test B flood test rice; format: in vivo, Oryza sativa
# Summary of the method: (§2)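 Plants were grown to the 2-leaf stage before treatment with test chemical, then held in a greenhouse for twelve to sixteen days. Injury was visually rated against untreated controls on a 0–10 scale, where 0 is no effect and 10 is complete control.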
# smallflower flatsedge = assay: Test B flood test smallflower flatsedge; format: in vivo, Cyperus difformis
# Summary of the method: as §2
# bamyardgrass = assay: Test B flood test barnyardgrass; format: in vivo, Echinochloa crus-galli
# Summary of the method: as §2
# [1] = Postemergence, Rate 62 g/ha, scale 0 to 10, 0 is no effect, 10 is complete control
# [2] = Postemergence, Rate 125 g/ha, scale of 0 to 10 where 0 is no effect and 10 is complete control
# [3] = Postemergence, Rate 250 g/ha, scale of 0 to 10, 0 is no effect, 10 is complete control
# [4] = Preemergence, Rate 62 g/ha, scale of 0 to 10 where 0 is no effect and 10 is complete control
# [5] = Preemergence, Rate 125 g/ha, scale of 0 to 10 where 0 is no effect and 10 is complete control
# [6] = Preemergence, Rate 250 g/ha, scale 0 to 10 (0 no effect, 10 complete control)
# [7] = Preemergence, Rate 500 g/ha, scale of 0 to 10 where 0 is no effect and 10 is complete control
# [8] = Rate 500 g/ha, Postemergence, scale 0 to 10, 0 is no effect, 10 is complete control
# [9] = Rate 62 g/ha, flood test species, Pre-emergence, visual evaluation after twelve to sixteen days
# [10] = Rate 125 g/ha, under heading Pre-emergence, flood test species, visual evaluation after twelve to sixteen days
# [11] = Rate 250 g/ha, Pre-emergence (flood test species), scale 0 to 10, 0 is no effect, 10 is complete control
# [12] = Rate 500 g/ha, Pre-emergence section of Table B, 0 to 10 scale (0 no effect, 10 complete control)
structure (smiles),measurement,setting,value
CC[C@@H](C)n1c(=O)on(C(=O)N(c2ccc(Cl)cc2)C(C)C)c1=O [Compound 665],Bedstraw plant response rating,bedstraw,0
same,"Plant response rating, Blackgrass",blackgrass; [1],3
same,Blackgrass plant response rating,blackgrass; [2],7
same,Blackgrass plant response rating,blackgrass; [3],8
same,Blackgrass plant response rating,blackgrass; [4],5
same,Blackgrass plant response rating,blackgrass; [5],7
same,"Plant response rating, Blackgrass",blackgrass; [6],8
same,"Plant response rating, Blackgrass",blackgrass; [7],9
same,Blackgrass plant response rating,blackgrass; [8],8
same,"Plant response rating, B. signalgrass",surinam grass; [1],0
same,"Plant response rating, B. signalgrass",surinam grass; [2],0
same,B. signalgrass plant response rating,surinam grass; [3],1
same,B. signalgrass plant response rating,surinam grass; [4],1
same,B. signalgrass plant response rating,surinam grass; [5],4
same,"Plant response rating, B. signalgrass",surinam grass; [6],8
same,"Plant response rating, B. signalgrass",surinam grass; [7],8
same,B. signalgrass plant response rating,surinam grass; [8],5
same,"Plant response rating, Cocklebur",cocklebur; [1],0
same,Cocklebur plant response rating,cocklebur; [2],0
same,Cocklebur plant response rating,cocklebur; [3],0
same,Cocklebur plant response rating,cocklebur; [4],0
same,Cocklebur plant response rating,cocklebur; [5],0
same,"Plant response rating, Cocklebur",cocklebur; [6],0
same,"Plant response rating, Cocklebur",cocklebur; [7],0
same,Cocklebur plant response rating,cocklebur; [8],2
same,"Plant response rating, Corn",corn; [1],0
same,Corn plant response rating,corn; [2],0
same,Corn plant response rating,corn; [3],0
same,Corn plant response rating,corn; [4],0
same,Corn plant response rating,corn; [5],0
same,"Plant response rating, Corn",corn; [6],0
same,"Plant response rating, Corn",corn; [7],3
same,Corn plant response rating,corn; [8],3
same,"Plant response rating, Morningglory",morningglory; [1],4
same,Morningglory plant response rating,morningglory; [2],6
same,Morningglory plant response rating,morningglory; [3],6
same,Morningglory plant response rating,morningglory; [4],0
same,Morningglory plant response rating,morningglory; [5],0
same,"Plant response rating, Morningglory",morningglory; [6],0
same,"Plant response rating, Morningglory",morningglory; [7],4
same,Morningglory plant response rating,morningglory; [8],8
same,"Plant response rating, Redroot pigweed",pigweed; [1],3
same,Redroot pigweed plant response rating,pigweed; [2],3
same,Redroot pigweed plant response rating,pigweed; [4],7
same,Redroot pigweed plant response rating,pigweed; [5],8
same,"Plant response rating, Redroot pigweed",pigweed; [6],9
same,"Plant response rating, Redroot pigweed",pigweed; [7],10
same,Redroot pigweed plant response rating,pigweed; [8],7
same,"Plant response rating, Rape",rape; [1],0
same,Rape plant response rating,rape; [2],0
same,Rape plant response rating,rape; [4],4
same,Rape plant response rating,rape; [5],6
same,"Plant response rating, Rape",rape; [6],8
same,"Plant response rating, Rape",rape; [7],9
same,Rape plant response rating,rape; [8],4
same,"Plant response rating, Soybean",soybean; [1],2
same,Soybean plant response rating,soybean; [2],2
same,Soybean plant response rating,soybean; [4],0
same,Soybean plant response rating,soybean; [5],0
same,"Plant response rating, Soybean",soybean; [6],0
same,"Plant response rating, Soybean",soybean; [7],2
same,"Plant response rating, Sugarbeets",sugar beet; [1],0
same,Sugarbeets plant response rating,sugar beet; [2],0
same,Sugarbeets plant response rating,sugar beet; [4],0
same,Sugarbeets plant response rating,sugar beet; [5],3
same,"Plant response rating, Sugarbeets",sugar beet; [6],6
same,"Plant response rating, Sugarbeets",sugar beet; [7],7
same,Sugarbeets plant response rating,sugar beet; [8],4
same,"Plant response rating, Velvetleaf",velvetleaf; [1],0
same,Velvetleaf plant response rating,velvetleaf; [2],2
same,Velvetleaf plant response rating,velvetleaf; [4],0
same,Velvetleaf plant response rating,velvetleaf; [5],0
same,"Plant response rating, Velvetleaf",velvetleaf; [6],4
same,"Plant response rating, Velvetleaf",velvetleaf; [7],7
same,Velvetleaf plant response rating,velvetleaf; [8],7
same,"Plant response rating, Wild oats",wild oat; [1],0
same,Wild oats plant response rating,wild oat; [2],0
same,Wild oats plant response rating,wild oat; [4],3
same,Wild oats plant response rating,wild oat; [5],5
same,"Plant response rating, Wild oats",wild oat; [6],7
same,"Plant response rating, Wild oats",wild oat; [7],8
same,Wild oats plant response rating,wild oat; [8],5
same,Nutsedge plant response rating,purple nutsedge; [2],0
same,Nutsedge plant response rating,purple nutsedge; [4],0
same,Nutsedge plant response rating,purple nutsedge; [5],0
same,"Plant response rating, Nutsedge",purple nutsedge; [6],0
same,Nutsedge plant response rating,purple nutsedge; [8],0
same,"Plant response rating, Rice (0 to 10 scale, 0 is no effect, 10 is complete control)",rice; [9],0
same,"Rice plant response rating (0 to 10 scale, 0 is no effect, 10 is complete control)",rice; [10],0
same,Rice plant response rating,rice; [11],0
same,Rice plant response rating,rice; [12],0
same,"Plant response rating, S. Flatsedge (0 to 10 scale, 0 is no effect, 10 is complete control)",smallflower flatsedge; [9],0
same,"S. Flatsedge plant response rating (0 to 10 scale, 0 is no effect, 10 is complete control)",smallflower flatsedge; [10],0
same,S. Flatsedge plant response rating,smallflower flatsedge; [11],0
same,S. Flatsedge plant response rating,smallflower flatsedge; [12],0
same,"Plant response rating, Barnyardgrass (0 to 10 scale, 0 is no effect, 10 is complete control)",bamyardgrass; [9],0
same,"Barnyardgrass plant response rating (0 to 10 scale, 0 is no effect, 10 is complete control)",bamyardgrass; [10],0
same,Barnyardgrass plant response rating,bamyardgrass; [11],2
same,Barnyardgrass plant response rating,bamyardgrass; [12],6
